Measured values published in patent publication US8569327B2, “Phenanthroindolizidine derivative and NFκB inhibitor containing same as active ingredient” (Kabushiki Kaisha Yakult Honsha, priority 2008, dated 2013).

Assays:
[1] = test system: NFκB; assay: Inhibitory action on the NFκB activity, luciferase assay in SW480/NRE-Luc cells; type: cell-based, human; details: for IC50: Homo sapiens, SW480, read-out: NFκB inhibitory activity IC50; for NFκB inhibitory activity IC50: SW480/NRE-Luc cells, compound 1 h then 50 ng/mL TNFα 4 h, luciferase
Text: (§1) The action of the phenanthroindolizidine alkaloid compound of the present invention on the NFκB activity was studied using a luciferase assay. Human colon cancer SW480 cells were transfected with pNFκB-Luc Plasmid (Stratagene), which is a reporter vector in which a five-time tandem repeat of the NFκB responsive element (NRE) is integrated into the upstream of the luciferase gene, using Lipofectamine 2000 (Invitrogen Corporation) in accordance with the attached operating procedure. Subsequently, the cells were cultured in an RPMI1640 medium containing 10% FBS, 100 U/mL penicillin, 100 μg/mL streptomycin, and 0.5 mg/mL G418 to produce SW480 cells having the luciferase gene, the expression of which is regulated by NRE, stably introduced therein (SW480/NRE-Luc cells). Likewise, SW480 cells were transfected with pGL3-Control Vector (Promega Corporation), which is a reporter vector in which the SV40 promoter is integrated into the upstream of the luciferase gene, to produce SW480 cells having the luciferase gene, the expression of which is regulated by the SV40 promoter, stably introduced therein (SW480/SV40-Luc cells). The SW480/NRE-Luc cells or the SW480/SV40-Luc cells were suspended in an RPMI1640 medium containing 10% FBS, 100 U/mL penicillin, and 100 μg/mL streptomycin (10% FBS/RPMI1640), and then seeded in a 96-well microplate, followed by culturing under conditions of 5% CO2 and at 37° C. (5000 cells/well). After an overnight culture, the compound of the present invention was added, followed by culturing for one hour. Further, 50 ng/mL TNFα (Sigma-Aldrich Corporation) was added, followed by culturing for four hours. Subsequently, a Steady-Glo Luciferase Assay reagent (Promega Corporation) was added, and the luminescent intensity was detected by SpectraMax M5e (Molecular Devices, Inc.) to measure the intracellular luciferase activity. It is to be noted that the action of the compound of the present invention on the NFκB activity or the SV40 promoter activity was shown as IC50 values (the concentration of a test compound needed for 50% inhibition of the induction of the luciferase expression).

[2] = test system: SV40 promoter; assay: SV40 promoter activity, luciferase assay in SW480/SV40-Luc cells; type: cell-based, human; details: for IC50: Homo sapiens, SW480, read-out: SV40 promoter inhibitory activity IC50; for SV40 promoter inhibitory activity IC50: SW480/SV40-Luc cells, luciferase
Text: as §1

[3] = test system: human colon cancer SW480 cells; assay: Inhibitory action on the proliferation of SW480 cells; type: cell-based; details: 48 hours, TetraColor ONE; for IC50: Homo sapiens, SW480
Procedure: (§2) The action of the phenanthroindolizidine alkaloid compound of the present invention on the proliferation of human colon cancer SW480 cells, HT-29 cells, and human non-small cell lung cancer A549 cells was studied. The SW480 cells were suspended in a 10% FBS/RPMI1640 and then seeded in a 96-well microplate, followed by culturing in 5% CO2 at 37° C. (2000 cells/well). The A549 cells and the HT-29 cells were each suspended in a DMEM medium containing 10% FBS, 100 U/mL penicillin, and 100 μg/mL streptomycin (10% FBS/DMEM) and a DMEM F-12 HAM medium containing 10% FBS, 100 U/mL penicillin, and 100 μg/mL streptomycin (10% FBS/DMEM F12 HAM), and then seeded in 96-well microplates, followed by culturing in 5% CO2 at 37° C. (1000 cells/well). After an overnight culture, the compound of the present invention was added, followed by further culturing for 48 hours (SW480 cells) and 96 hours (A549 cells and HT-29 cells). After culturing, the number of viable cells was counted using TetraColor ONE (Seikagaku Corporation) in accordance with the attached operating procedure. The results were expressed as the concentration of a test compound needed for 50% inhibition of the proliferation of the cells (IC50).

[4] = test system: human colon cancer HT-29 cells; assay: Inhibitory action on the proliferation of HT-29 cells; type: cell-based; details: 96 hours, TetraColor ONE; for IC50: Homo sapiens, HT-29
Procedure: as §2

[5] = test system: human non-small cell lung cancer A549 cells; assay: Inhibitory action on the proliferation of A549 cells; type: cell-based; details: 96 hours, TetraColor ONE; for IC50: Homo sapiens, A549
Procedure: as §2

[6] = test system: mice transplanted with mouse fibrosarcoma Meth A cells; assay: Animal toxicity test; type: in vivo; details: intravenous days 1, 5, 9, observed three weeks
Procedure: Also, the toxicity of known phenanthroindolizidine alkaloid compounds, namely (12aS,13S)-6,7-dimethoxy-9,10,11,12,12a,13-hexahydro-9a-aza-cyclopenta[b]triphenylene-3,13-diol (known compound 1; refer to WO01/023384) and (12aS,13S)-3,6,7-trimethoxy-9,10,11,12,12a,13-hexahydro-9a-aza-cyclopenta[b]triphenylene-13-ol (known compound 2; refer to Planta Med., 2002, 68: 186-188), was simultaneously studied. To a control group, a physiological saline solution, a solvent, was administered. As a result, as shown in the following Tables 35 and 36, all the mice survived in a group administered with the compound of the present invention.

Compound: COc1cc2c3c(c4ccccc4c2cc1OC)[C@@H](O)[C@H]1CCCN1C3.Cl [Compound 2, (12aR,13R)-6,7-dimethoxy-9,10,11,12,12a,13-hexahydro-9a-aza-cyclopenta[b]triphenylene-13-ol hydrochloride]
- IC50 [1]: 387 ng/mL
- IC50 [2]: > 10000 ng/mL
- IC50 [3]: 1020 ng/mL
- IC50 [4]: 204 ng/mL
- IC50 [5]: 211 ng/mL
- Mortality rate ([6]; total dose 25 mg/kg): 0/5
- Mortality rate ([6]; total dose 50 mg/kg): 0/5

Compound: CCc1ccc2c3c(c4cc(OC)c(OC)cc4c2c1)CN1CCC[C@@H]1[C@@H]3O.Cl [Compound 4, (12aR,13R)-3-ethyl-6,7-dimethoxy-9,10,11,12,12a,13-hexahydro-9a-aza-cyclopenta[b]triphenylene-13-ol hydrochloride]
- IC50 [1]: 201 ng/mL
- IC50 [2]: > 10000 ng/mL
- IC50 [3]: 513 ng/mL
- IC50 [4]: 121 ng/mL
- IC50 [5]: 101 ng/mL
- Mortality rate ([6]; total dose 25 mg/kg): 0/5
- Mortality rate ([6]; total dose 50 mg/kg): 0/5

Compound: COc1cc2c3c(c4ccc(F)cc4c2cc1OC)[C@@H](O)[C@H]1CCCN1C3.Cl [Compound 6, (12aR,13R)-3-fluoro-6,7-dimethoxy-9,10,11,12,12a,13-hexahydro-9a-aza-cyclopenta[b]triphenylene-13-ol hydrochloride]
- IC50 [1]: 166 ng/mL
- IC50 [2]: > 10000 ng/mL
- IC50 [3]: 567 ng/mL
- IC50 [4]: 38.8 ng/mL
- IC50 [5]: 34.1 ng/mL
- Mortality rate ([6]; total dose 25 mg/kg): 0/5
- Mortality rate ([6]; total dose 50 mg/kg): 0/5

Compound: COc1cc2c3c(c4ccc(OC(C)=O)cc4c2cc1OC)[C@H](O)[C@@H]1CCCN1C3.Cl [Compound 7, acetic acid(12aS,13S)-13-hydroxy-6,7-dimethoxy-9,10,11,12,12a,13-hexahydro-9a-aza-cyclopenta[b]triphenylene-3-yl ester hydrochloride]
- NFκB inhibitory activity IC50 [1]: 0.25 ng/mL
- SV40 promoter inhibitory activity IC50 [2]: >100 ng/mL
- SW480 proliferation inhibitory action IC50 [3]: 0.41 ng/mL
- HT-29 proliferation inhibitory action IC50 [4]: 0.080 ng/mL
- A549 proliferation inhibitory action IC50 [5]: 0.63 ng/mL
- Mortality rate ([6]; total dose 25 mg/kg): 0/5
- Mortality rate ([6]; total dose 50 mg/kg): 0/5

Compound: COc1cc2c3c(c4ccc(OC(C)=O)cc4c2cc1OC)[C@H](OC(C)=O)[C@@H]1CCCN1C3.Cl [Compound 8, acetic acid(12aS,13S)-3-acetoxy-6,7-dimethoxy-9,10,11,12,12a,13-hexahydro-9a-aza-cyclopenta[b]triphenylene-13-yl ester hydrochloride]
- NFκB inhibitory activity IC50 [1]: 63.2 ng/mL
- SV40 promoter inhibitory activity IC50 [2]: >1000 ng/mL
- SW480 proliferation inhibitory action IC50 [3]: 17.0 ng/mL
- HT-29 proliferation inhibitory action IC50 [4]: 5.8 ng/mL
- A549 proliferation inhibitory action IC50 [5]: 1.5 ng/mL
- Mortality rate ([6]; total dose 25 mg/kg): 0/5
- Mortality rate ([6]; total dose 50 mg/kg): 0/5

Compound: COc1cc2c3c(c4ccc(OC(=O)N5CCC(N6CCCCC6)CC5)cc4c2cc1OC)[C@H](O)[C@@H]1CCCN1C3 [Compound 13, [1,4′]bipiperidinyl-1′-carboxylic acid(12aS,13S)-13-hydroxy-6,7-dimethoxy-9,10,11,12,12a,13-hexahydro-9a-aza-cyclopenta[b]triphenylene-3-yl ester]
- NFκB inhibitory activity IC50 [1]: 20.3 ng/mL
- SV40 promoter inhibitory activity IC50 [2]: >1000 ng/mL
- SW480 proliferation inhibitory action IC50 [3]: 19.5 ng/mL
- HT-29 proliferation inhibitory action IC50 [4]: 21.6 ng/mL
- A549 proliferation inhibitory action IC50 [5]: 7.4 ng/mL
- Mortality rate ([6]; total dose 25 mg/kg): 0/5
- Mortality rate ([6]; total dose 50 mg/kg): 0/5

Compound: COc1cc2c3c(c4ccc(OC(C)=O)cc4c2cc1OC)C(F)[C@@H]1CCCN1C3.Cl (stereo partly drawn) [Compound 14, acetic acid(S)-13-fluoro-6,7-dimethoxy-9,10,11,12,12a,13-hexahydro-9a-aza-cyclopenta[b]triphenylene-3-yl ester hydrochloride]
- NFκB inhibitory activity IC50 [1]: 1.7 ng/mL
- SV40 promoter inhibitory activity IC50 [2]: >100 ng/mL
- SW480 proliferation inhibitory action IC50 [3]: 2.1 ng/mL
- HT-29 proliferation inhibitory action IC50 [4]: 0.62 ng/mL
- A549 proliferation inhibitory action IC50 [5]: 0.23 ng/mL
- Mortality rate ([6]; total dose 25 mg/kg): 0/5
- Mortality rate ([6]; total dose 50 mg/kg): 0/5

Compound: COc1cc2c3c(c4ccc(OC(=O)c5cccs5)cc4c2cc1OC)[C@H](O)[C@@H]1CCCN1C3.Cl [Compound 19, thiophene-2-carboxylic acid(12aS,13S)-13-hydroxy-6,7-dimethoxy-9,10,11,12,12a,13-hexahydro-9a-aza-cyclopenta[b]triphenylene-3-yl ester hydrochloride]
- NFκB inhibitory activity IC50 [1]: 3.0 ng/mL
- SV40 promoter inhibitory activity IC50 [2]: >100 ng/mL
- SW480 proliferation inhibitory action IC50 [3]: 1.3 ng/mL
- HT-29 proliferation inhibitory action IC50 [4]: 1.69 ng/mL
- A549 proliferation inhibitory action IC50 [5]: 0.82 ng/mL
- Mortality rate ([6]; total dose 25 mg/kg): 0/5
- Mortality rate ([6]; total dose 50 mg/kg): 0/5

Compound: COc1ccc2c3c(c4cc(OC)c(OC)cc4c2c1)CN1CCC[C@H]1[C@H]3O [Known Compound 2, (12aS,13S)-3,6,7-trimethoxy-9,10,11,12,12a,13-hexahydro-9a-aza-cyclopenta[b]triphenylene-13-ol, reference compound]
- Mortality rate ([6]; total dose 25 mg/kg, 25 mg/kg): 2/5
- Mortality rate ([6]; total dose 25 mg/kg, listed as known compound 2, 25 mg/kg): some of the mice also died
- Mortality rate ([6]; total dose 50 mg/kg, 50 mg/kg): 5/5
- Mortality rate ([6]; total dose 50 mg/kg, listed as known compound 2, 50 mg/kg): all the mice died

Compound: COc1cc2c3c(c4ccc(O)cc4c2cc1OC)[C@H](O)[C@@H]1CCCN1C3 [Known compound 1, (12aS,13S)-6,7-dimethoxy-9,10,11,12,12a,13-hexahydro-9a-aza-cyclopenta[b]triphenylene-3,13-diol, reference compound]
- Mortality rate ([6]; total dose 25 mg/kg): 0/5
- Mortality rate ([6]; total dose 50 mg/kg, 50 mg/kg): 5/5
- Mortality rate ([6]; total dose 50 mg/kg, listed as known compound 1, 50 mg/kg): all the mice died

Compound: benzhydryl-((S)-6,7-dimethoxy-3-pyrrolidine-9,10,11,12,12a,13-hexahydro-9a-aza-cyclopenta[b]triphenylene-3-yl)-amine methanesulfonate [Compound 58]
- NFκB inhibitory activity IC50 [1]: 16.2 ng/mL
- SV40 promoter inhibitory activity IC50 [2]: >10000 ng/mL
- SW480 proliferation inhibitory action IC50 [3]: 42.3 ng/mL
- HT-29 proliferation inhibitory action IC50 [4]: 52.2 ng/mL
- A549 proliferation inhibitory action IC50 [5]: 20.7 ng/mL
